Earlier results in patent US20210145863A1, “LUBRICATED SUBSTRATES COMPRISING LAMBDA-CARRAGEENAN” (priority 2018, published 2021).

Tested on: HPV
Conditions: in vitro (Buck, C. B., et al.)

lambda-carrageenan
Activity against HPV: active
